“Also recorded” adds a separate entry of the source. Where two headings read alike, the source gives them in different places.
Columns and labels:
[1] = Subjective and objective symptoms (incl. ESR) in the clinical studies of ST-630; format: in vivo, human
Excerpt: 2) Questioning, auscultation, percussion
5. Subjective and objective symptoms

[2] = Single-dose clinical study of ST-630: urinary excretions of electrolytes; format: in vivo, human
Excerpt: (3) Urinalysis: pH, occult blood, protein, glucose, bilirubin, urobilinogen, sediment and creatinine clearance (24-hour method)
(2) Urinary excretion ST-630, Ca, P, Mg, Na, K, creatinine, c-AMP*^3 and hydroxyproline*^3

female beagle dogs = assay: Chronic dosing toxicity, three months oral; format: in vivo, dog (beagle)
Experimental: With respect to chronic dosing, a group of six female beagle dogs were given 0.3 mg/kg of either ST-630 or 1α-hydroxyvitamin D3 orally each day for three months.

[3] = Single-dose clinical study of ST-630: blood biochemistry / serum electrolytes; format: in vivo, human
Excerpt: (2) Blood biochemistry: Total protein fraction, BUN, creatinine, total cholesterol, neutral fat, phospholipid, serum electrolytes (Na, K, Cl, Ca, P, Mg), Al-P, GOT, GPI, LDH, γ-GTP, CPK, blood glucose, HBs antigen/antibody*^1, serologic test for syphilis, activated partial thrombo-plastin time *^2 and prothrombin time *^2
(§1) (1) Serum concentrations: ST-630, Ca, P, Mg and Al-P

[4] = Overall safety / tolerance between effectiveness and toxicity in humans; format: in vivo, human
Ovariectomized rats = assay: Ovariectomized rat model: serum Ca and P, femur dry weight, ash weight and breaking load; format: in vivo, Female Fisher rats; details: for Serum Pi / Breaking load (femur) / Serum Ca / Ash weight (femur) / Dry weight (femur): three times a week for 23 weeks, Mean ± SD; for Serum Pi: OVX 2.6 ± 0.4; for Breaking load (femur): OVX 9.0 ± 0.9; for Serum Ca: OVX 9.7 ± 0.2; for Ash weight (femur): OVX 285 ± 19; for Dry weight (femur): OVX 431 ± 26
Excerpt: Female Fisher rats, 9-10 months old, were ovariectomized and were fed a vitamin D-deficient diet containing 0.45% calcium and 0.3% phosphorus. The rats were given 15IU of vitamin D3 orally once a week throughout this experiment. Four weeks after the surgery, the rats were orally adminstered three times a week for 23 weeks with ST-630 (30, 100 or 300 pmole/kg) or 1α-hydroxyvitamin D3 (100 or 300 pmole/kg).

[5] = Study of dietary effect on the absorption of ST-630 (crossover); format: in vivo, human; details: 2.0 μg, postprandial (30 min after meal) compared with fasting (FIG. 13)
Experimental: as §1
*: Administration at 30 min after meal.
The dietary effect on the absorption of ST-630 was studied by the crossover method at the dose of 2.0 μg.

male rats = assay: Acute toxicity (LD50), single dose; format: in vivo, rat; details: rats, from LD50
Excerpt: (§2) LD50 data represent the dose administered resulting in the death of 50% of the test group.

[6] = Acute toxicity (LD50), single dose; format: in vivo, rat; details: rat, in vivo; single (acute) dose, male rats, at 14 days
Excerpt: as §2

[7] = tested on: vitamin D responsive systems of vitamin D-deficient animals; details: cited from earlier work; for activity relative to 1,25-(OH)2 D3: vitamin D responsive systems, vitamin D-deficient animals, times that of 1,25-(OH)2 D3
[8] = Repeated-dose clinical study of ST-630 (7 days, postprandial); format: in vivo, human; details: 1.0 μg/day for 7 days
Experimental: 4.1. Dosing schedule (postprandial administration)
*^1 : Blood samples are collected only immediately before
*^2 : Blood samples are collected only immediately before
*^3 : Only cereatinie are determined immediately before and 12 hr
after administration on day 1, immediately before and 12, 24, 48, 72, 96
and 120 hr after the last administration, and at followup examination. On
days 2-6, blood samples are collected only immediately before
ST-630 was administered postprandially at a daily dose of 1.0 μg for 7 days.

[9] = 0.0125 μg single dose, subject 1, last value, no date
[10] = 2.0 μg single dose, subject 8, last value, no date
[11] = single dose 0.25, 0.5, 1 and 2 μg/man (FIGS. 1-4)
[12] = single doses 0.0125 μg to 2.0 μg
[13] = compared with 1α-hydroxyvitamin D3
[14] = dose response over the doses tested
[15] = vitamin D-like activity compared with 1,25-dihydroxycholecalciferol

Compound: C=C1/C(=C\C=C2/CCC[C@]3(C)[C@@H]([C@H](C)CCCC(O)(C(F)(F)F)C(F)(F)F)CC[C@@H]23)C[C@@H](O)C[C@@H]1O [ST-630, 26,26,26,27,27,27-hexafluoro-1α,25-dihydroxycholecalciferol]
- ESR 1 h ([1]; 0.0125 μg single dose, subject 1, date 2/4 (before: 3)): 3
- ESR 2 h ([1]; 0.0125 μg single dose, subject 1, date 2/4 (before: 7)): 8
- ESR 1 h ([1]; 0.0125 μg single dose, subject 1, date 2/8 (before: 3)): 3
- ESR 2 h ([1]; 0.0125 μg single dose, subject 1, date 2/8 (before: 7)): 8
- ESR 1 h ([1]; 0.0125 μg single dose, subject 1, follow-up examination 2/15 (before: 3)): 13
- ESR 2 h ([1]; 0.0125 μg single dose, subject 1, follow-up examination 2/15 (before: 7)): 34
- ESR 1 h [1, 9]: 1
- ESR 2 h [1, 9]: 8
- ESR 1 h ([1]; 2.0 μg single dose, subject 8, date 8/15 (before: 5)): 4
- ESR 2 h ([1]; 2.0 μg single dose, subject 8, date 8/15 (before: 8)): 8
- ESR 1 h ([1]; 2.0 μg single dose, subject 8, date 8/19 (before: 5)): 4
- ESR 2 h ([1]; 2.0 μg single dose, subject 8, date 8/19 (before: 8)): 11
- ESR 1 h ([1]; 2.0 μg single dose, subject 8, follow-up examination 8/27 (before: 5)): 11
- ESR 2 h ([1]; 2.0 μg single dose, subject 8, follow-up examination 8/27 (before: 8)): 27
- ESR 1 h [1, 10]: 3
- ESR 2 h [1, 10]: 8
- Symptom ([1]; repeated-dose study, 1.0 μg/day, 7 days, subjects 1-8): None and No symptom
- increase in erythrocyte sedimentation rate, number of cases ([1]; single dose 0.0125 μg (Step 1)): one case
- headache (symptom) ([1]; single dose 0.25 μg (Step 5)): Headache; also recorded: one case
- increase in erythrocyte sedimentation rate, number of cases ([1]; single dose 2.0 μg (Step 8)): one case
- Symptom ([1]; study of dietary effect, 2.0 μg, subjects 1-10): None and No symptom
- total urinary Ca excretion ([2]; single dose 2.0 μg): increases
- urinary Ca/Cr ratio ([2]; single dose 2.0 μg): increases
- urinary electrolytes ([2]; single doses below 2.0 μg (FIGS. 5-12)): no significant increases
- deaths (female beagle dogs; 0.3 mg/kg orally each day for three months): all six dogs
- toxicity relative to 1α-hydroxyvitamin D3 (female beagle dogs; conclusion for rats and dogs): much more toxic
- toxicity at higher doses in humans ([3]; 0.5 μg, 1 μg and 2 μg (FIGS. 2-4)): without toxicity problems
- serum Ca change [3, 11]: No major change
- serum Mg change [3, 11]: No major change
- serum P change [3, 11]: No major change
- blood biochemistry change [3, 12]: No change
- serum electrolytes change [3, 12]: No change
- calcium absorption [4]: promoted calcium absorption
- hypercalcemia [4]: no hypercalcemia
- safety [4]: no remarkable problem on safety
- "window" or tolerance between effectiveness and toxicity in humans ([4]; up to 2.0 μg): relatively large
- Serum Pi (Ovariectomized rats; 30 pmole/kg p.o.): 3.6 ± 0.3 mg/100 ml
- Breaking load (femur) (Ovariectomized rats; 30 pmole/kg p.o.): 9.7 ± 0.8 kg
- Serum Ca (Ovariectomized rats; 30 pmole/kg p.o.): 9.9 ± 0.4 mg/100 ml
- Ash weight (femur) (Ovariectomized rats; 30 pmole/kg p.o.): 298 ± 22 mg
- Dry weight (femur) (Ovariectomized rats; 30 pmole/kg p.o.): 449 ± 29 mg
- Serum Pi (Ovariectomized rats; 100 pmole/kg p.o.): 4.8 ± 0.2 mg/100 ml
- Breaking load (femur) (Ovariectomized rats; 100 pmole/kg p.o.): 10.6 ± 0.5 kg
- Serum Ca (Ovariectomized rats; 100 pmole/kg p.o.): 10.6 ± 04 mg/100 ml
- Ash weight (femur) (Ovariectomized rats; 100 pmole/kg p.o.): 319 ± 12 mg
- Dry weight (femur) (Ovariectomized rats; 100 pmole/kg p.o.): 472 ± 21 mg
- Serum Pi (Ovariectomized rats; 300 pmole/kg p.o.): 5.3 ± 0.3 mg/100 ml
- Breaking load (femur) (Ovariectomized rats; 300 pmole/kg p.o.): 12.4 ± 1.3 kg
- Serum Ca (Ovariectomized rats; 300 pmole/kg p.o.): 11.7 ± 0.7 mg/100 ml
- Ash weight (femur) (Ovariectomized rats; 300 pmole/kg p.o.): 362 ± 32 mg
- Dry weight (femur) (Ovariectomized rats; 300 pmole/kg p.o.): 538 ± 47 mg
- prevention of the decrease of ash weight of the femur (Ovariectomized rats; [13]): more potently
- prevention of the decrease of breaking load of the femur (Ovariectomized rats; [13]): more potently
- prevention of the decrease of dry weight of the femur (Ovariectomized rats; [13]): more potently
- increase of mechanical strength of the bone (Ovariectomized rats; compared with 1α-hydroxyvitamin D3 at doses causing the same increase of serum calcium (FIG. 24)): more potently
- serum calcium level (Ovariectomized rats; [14]): increased dose-dependently
- serum phosphorus level (Ovariectomized rats; [14]): increased dose-dependently
- AUC (area under the serum concentration curve), postprandial versus fasting [5]: slightly higher
- toxicity relative to 1α-hydroxyvitamin D3 (male rats): about five times more toxic
- LD50 at 336 h [6]: 0.043 mg/kg
- activity relative to 1,25-(OH)2 D3 ([7]; listed as 26,26,26,27,27,27-F6 -1,25-(OH)2 D3): at least ten times greater
- activity relative to 1,25-(OH)2 D3 ([7]; listed as 26,26,26,27,27,27-hexafluoro derivative of 1α,25-dihydroxycholecalciferol): at least ten times greater
- activity relative to 1,25-(OH)2 D3 ([7]; listed as 26,26,26,27,27,27-hexafluoro-1α,25-dihydroxyvitamin D3): about ten times more active
- ability to mobilize calcium from bone [7, 15]: substantially greater
- ability to stimulate calcium transport in the intestine [7, 15]: substantially greater
- anti-rachitic activity according to the rat line test [7, 15]: substantially greater
- serum Ca concentration change ([8]; postprandial): tended to be elevated slightly but the change was within the normal range
- urinary Ca/Cr ratio ([8]; postprandial): increased with the number of dosings
- recovery of urinary Ca/Cr ratio ([8]; after completion of administration): recovered to the control value immediately after completion of administration
